# Assays:
# Format in all cases: cell-based, human
# HLA-E = HLA-E surface stabilization assay with RMA-S/HLA-E cells; conditions: peptide 3-300 µM (Fig. 3: 30 µM) in OptiMEM, 16 h, 37 °C, anti-HLA-E 3D12, flow cytometry, n = 4 replicate experiments
# Experimental: To probe top-predicted proteome-derived peptides (Tables 2 and 3) for HLA-E binding, we assessed their ability to stabilize surface-expressed HLA-E on RMA-S/HLA-E cells, a TAP-deficient mouse cell line engineered to express HLA-E and human β2M (Fig. 3 and Supplemental Fig. 8)[47].
# Fig. 3 Peptide stabilization of HLA-E surface expression. Assessment of peptide-HLA-E binding via HLA-E surface stabilization assay with RMA-S/HLA-E cells incubated with 30 μM peptide. HLA-E expression is detected with an anti-HLA-E antibody. Measurements from n = 4 replicate experiments are shown, with solid black lines indicating mean values. […] Source data are provided as a Source Data file.
# RMA-S/HLA-E cells were incubated with serial dilutions of peptides (3–300 µM, Genscript) in OptiMEM (ThermoFisher) for 16 h at 37 °C. Cells were washed with PBS, stained for HLA-E (Clone 3D12, Biolegend, 1:200 dilution) for 15 min at room temperature and analyzed by flow cytometry (analysis in FlowJo version 10). Peptide UBAC2_275-279 was ordered as a 5mer peptide (WNRLF) given the similarity with other WN peptides and hypothesis of a truncated peptide binding in the HLA-E groove. […] Measurements from replicate experiments are plotted in Fig. 3 and Supplemental Fig. 8.
# NKG2A+/NKG2C- NK cells = test: NK cell activation assay with peptide-pulsed K562/HLA-E cells, NKG2A+/NKG2C- NK cells; conditions: K562/HLA-E target cells, 300 µM peptide ([…] µM BFAR263-271), E:T 2:1, 6 h; degranulation (CD107a), IFN-γ, TNF, CCL3; flow cytometry
# Experimental: (§1) We hypothesized that our predicted proteome-derived peptides could affect NK cell activation through interactions with CD94/NKG2A and CD94/NKG2C. To investigate, we performed cell-based activation assays on primary NK cells (Fig. 4A). NK cells were co-incubated with peptide-pulsed HLA-E-expressing K562 cells, as described previously. The parental K562 human myelogenous leukemia cell line is a typical target to measure NK cell cytotoxicity and activation, allowing for assessment of both NKG2A-mediated inhibition and NKG2C-mediated activation. […] NKG2A^-/NKG2C^- NK cells served as internal control as these should be unaffected by peptide-HLA-E complexes (Supplemental Fig. 12).
# (§2) Fig. 4 NK cell stimulation assays. Assessment of effects of peptides on NK cell activity through incubation of NK cells, peptides, and (A) K562/HLA-E or (B) RMA-S/HLA-E target cells. […] Replicates for individual peptides are from different donors, with solid black lines indicating mean values. […] Representative gating for NKG2A^+/NKG2C^- and NKG2A^-/NKG2C^+ NK cells is shown in Supplemental Fig. 14. Source data are provided as a Source Data file.
# (§3) All analyses of human data were carried out in compliance with the relevant ethical regulations. Healthy blood donors gave informed consent at DRK Blutspendedienst Nord-Ost, Dresden, Germany, and buffy coats were obtained as approved by Charité ethics committee (EA4/059/17). PBMCs were isolated from human CMV-seropositive buffy coats by density centrifugation over Ficoll Paque Plus (GE Healthcare) and screened for the presence of NKG2C^+ NK cell expansions by flow cytometry to have sufficient frequencies of single-positive cells for parallel assessment of activation and inhibition via HLA-E[47]. Total NK cells from donors with NKG2C^+ expansions (>10% NKG2A^-/NKG2C^+ NK cells) were enriched with CD56 microbeads (Miltenyi Biotec) and cryopreserved in FBS with 10% v/v DMSO. After thawing, NK cells were washed with complete medium, stained with antibodies and Fixable Viability Dye eFluor 780 (Thermo Fisher) for 15 min at 4 °C in PBS, sorted as viable CD56^+ CD3^− cells, and rested in complete media overnight. […] Brefeldin A and Monensin (BD Biosciences) were added after a 1 h culture period. After an additional 5 h, the stimulation was stopped by centrifugation at 4 °C. Cells underwent surface staining, followed by fixation and intracellular staining using Inside Stain Kit (Miltenyi Biotec). Samples were analyzed by flow cytometry on an LSR Fortessa (BD Biosciences). Inhibition of NKG2A^+ NK cells and activation of NKG2C^+ NK cells was assessed by gating on the respective single-positive populations (Supplemental Fig. 14). Antibodies are listed in Supplemental Table 1: anti-human CD56 PE/Dazzle 594 (1:200 dilution), CD3 APC-eFluor 780 (1:50 dilution), anti-human CD159a (NKG2A) Biotin REAfinity (1:50 dilution), anti-human CD159c (NKG2C) PE REAfinity (1:100 dilution), anti-human CD107a (LAMP-1) Alexa Fluor 488 (1:400 dilution), anti-human IFN-γ PE-Vio 770 REAfinity (1:50 dilution), anti-human TNF-α Brilliant Violet 605 (1:50 dilution), anti-human CCL3 (MIP-1α) REAfinity (1:25 dilution).
# NKG2A-/NKG2C+ NK cells = test: NK cell activation assay with peptide-pulsed K562/HLA-E cells, NKG2A-/NKG2C+ NK cells; conditions: K562/HLA-E target cells, 300 µM peptide ([…] µM BFAR263-271), E:T 2:1, 6 h; degranulation (CD107a), IFN-γ, TNF, CCL3; flow cytometry
# Experimental: as §1, §2, §3
# NKG2A-/NKG2C- NK cells = test: NK cell activation assay with peptide-pulsed K562/HLA-E cells, NKG2A-/NKG2C- internal control; conditions: K562/HLA-E target cells, 300 µM peptide, flow cytometry
# Experimental: We hypothesized that our predicted proteome-derived peptides could affect NK cell activation through interactions with CD94/NKG2A and CD94/NKG2C. To investigate, we performed cell-based activation assays on primary NK cells (Fig. 4A). NK cells were co-incubated with peptide-pulsed HLA-E-expressing K562 cells, as described previously. The parental K562 human myelogenous leukemia cell line is a typical target to measure NK cell cytotoxicity and activation, allowing for assessment of both NKG2A-mediated inhibition and NKG2C-mediated activation. A side-by-side comparison of the HLA-E expression levels of K562/HLA-E and RMA-S/HLA-E cell lines is shown in Supplemental Fig. 11. All peptides which bound and stabilized HLA-E in the cell-based stability experiment (Fig. 3) were analyzed for their effects on NKG2A^+/NKG2C^- or NKG2A^-/NKG2C^+ NK cell activity, as measured by their ability to induce NK cell degranulation as well as IFN-γ, TNF and CCL3 production, in comparison to class I MHC-derived positive control peptides […] and […], and negative control peptide […] […]
# All analyses of human data were carried out in compliance with the relevant ethical regulations. […] Samples were analyzed by flow cytometry on an LSR Fortessa (BD Biosciences). Inhibition of NKG2A^+ NK cells and activation of NKG2C^+ NK cells was assessed by gating on the respective single-positive populations (Supplemental Fig. 14). […]
sequence,measurement,setting,value
"SAPLKTRFL [UL120_71-79, AD169, divergent UL120 peptide of CMV strain AD169]",stabilization of HLA-E surface expression,HLA-E,weaker but detectable stabilization
same,inhibitory effects on NKG2A+ cells,NKG2A+/NKG2C- NK cells,negatively affect activation of all subsets
same,activating effects on NKG2C+ cells,NKG2A-/NKG2C+ NK cells,negatively affect activation of all subsets
same,effect on activation of internal NKG2A-/NKG2C- control NK cells,NKG2A-/NKG2C- NK cells,negatively affect activation of all subsets

# Reference: PMC10412585 (Nature Communications, 2023)
